Data taken from patent publication US20260209185A1, “SYNTHESIS METHODS AND INTERMEDIATES FOR THE PRODUCTION OF REMIMBRUTINIB” (NOVARTIS AG, priority 2022, published 2026).

Legend:
[1] = test system: Salmonella typhimurium TA98, TA100, TA1535, TA97a and TA102; test: AMES testing (bacterial reverse mutation test, Salmonella/microsome assay), all strains; type: cell-based
Excerpt: (§1) The Ames assay is a rapid, reliable and economical method for screening compounds for potential genetic activity at the nucleotide level. A large database has been accumulated with this assay, confirming its ability to detect genetically active compounds of most chemical classes with around 80 to 90% sensitivity and specificity.
(§2) With the exception of strain TA102, these strains require biotin as well as histidine for growth. In strain TA102 the critical mutation in the histidine gene is located on a multicopy plasmid pAQ1. This strain is particularly sensitive to the activities of oxidative and cross-linking mutagens. The plasmid derivatives (TA98, TA100, TA97a and TA102) have increased sensitivity to certain mutagens as the pKM101 plasmid codes for an error-prone DNA repair system^(1,3).
(§3) When exposed to a mutagen, some of the bacteria in the treated population, through chemical interaction with the compound, undergo genetic changes which cause them to revert to a non-histidine-requiring state and thus grow in the absence of exogenous histidine. Different tester strains are used because each is mutated by particular chemical classes of compound. A compound that is mutagenic in one strain need not be so in another^(1,3).
(§4) Test item: INT 3, also known as 5-fluoro-2-methyl-3-(4,4,5,5-tetramethyl-1,3,2-dioxaborolan-2-yl)aniline. Vehicle: Di-methyl sulfoxide (DMSO) Purity/Content of drug: 97.95%. Molecular Structure:
(§5) Strains of Salmonella typhimurium used^(4,5,6): TA98, TA100, TA1535, TA97a and TA102. Metabolic activation system^(2): Liver S-9 mix from male rats, Aroclor 1254-pretreated. Per plate, 0.5 mL of 5% S-9 mix was added. Controls: Control treatments comprised additions at the same volume per plate (0.1 mL) as the test item solutions. Negative controls comprised treatments with the chosen vehicle.
(§6) Concentrations tested (Mutaqenicity Study): 50, 158, 501, 1582 and 5000 μg/plate (using all strains+/−S-9). […] Mutagenicity: Data from control treatments confirmed the correct strain and assay functioning, and the data were accepted as valid.
(§7) Acceptance criteria: The assay was considered valid as all the following criteria were met: • 1. Vehicle control counts fell within the normal ranges; • 2. The positive control chemicals induced increases in revertant numbers by 5- to 30-fold for different strains when compared to the concurrent vehicle controls confirming discrimination between different strains, and an active S-9 preparation.
(§8) Evaluation criteria: For valid data, the test item was considered mutagenic in this assay if a concentration related increase in revertant numbers of 2-fold (in strains TA98, TA100, TA1535 or TA97a) or 1.5-fold (in strain TA102) the concurrent vehicle control values was observed. […]

[2] = test system: Salmonella typhimurium tester strain TA97a; test: AMES testing (bacterial reverse mutation test, Salmonella/microsome assay), strain TA97a; type: cell-based; details: for increase in the number of revertants over the concurrent vehicle controls: strain TA97a; for mutagenicity (overall conclusion): strain TA97a in presence of metabolic activation, criterion 2-fold increase in revertants
Excerpt: as §1, §2, §3, §4, §5, §6, §7, §8

In the case of `Cc1c(N)cc(F)cc1B1OC(C)(C)C(C)(C)O1` [INT 3, 5-fluoro-2-methyl-3-(4,4,5,5-tetramethyl-1,3,2-dioxaborolan-2-yl)aniline], the “increase in revertant numbers over the concurrent vehicle controls, other strain treatments” value ([1]; any other strain treatments (TA98, TA100, TA1535, TA97a without S-9), 50-5000 μg/plate, +/- S-9) is reported as less than 2 fold, the “cytotoxicity to tester strains” value ([1]; preliminary cytotoxicity and mutagenicity test, any strain, presence and absence of metabolic activation, up to 5000 μg/plate) is reported as “did not indicate any cytotoxicity” and the “increase in revertant numbers over the concurrent vehicle controls, strain TA102” value ([1]; strain TA102, 50-5000 μg/plate, +/- S-9) is reported as less than 1.5 fold. For the same compound, the “precipitation of test item” value ([1]; up to highest concentration (5000 μg/plate), presence and absence of metabolic activation, vehicle DMSO) was “did not precipitate”, the “increase in the number of revertants over the concurrent vehicle controls” value ([2]; Experiment 1, 5000 μg/plate, in the presence of metabolic activation (rat liver S-9)) was 2.3 fold and the “increase in the number of revertants over the concurrent vehicle controls” value ([2]; Experiment 2, highest test concentration 5000 μg/plate, in presence of metabolic activation (rat liver S-9)) was 1.8 fold. For the same compound, the “mutagenicity (overall conclusion)” value [2] was “mutagenic potential” and the “mutagenicity (overall conclusion)” value ([2]; listed as INT3) was “weak mutagenic potential”.
